Data reported in the supplement of paper PMC13380429.

Legend:
Settings in all cases: 72 h
Caco-2 [1] = test: cell viability relative to DMSO; higher = less toxic
Calu-3 [2] = test: as above
U2OS [3] = test: as above
HepG2 [4] = test: as above
Vero E6 [5] = test: as above
Caco-2 [6] = test: drug sensitivity score (DSS) for viability; higher = more toxic; extreme values may be limits of the assay
Calu-3 [7] = test: as above
U2OS [8] = test: as above
HepG2 [9] = test: as above
Vero E6 [10] = test: as above
Caco-2 [11] = test: relative viability EC50 (midpoint between 100% and the lowest measured viability); higher = less toxic
Calu-3 [12] = test: as above
U2OS [13] = test: as above
HepG2 [14] = test: as above
Vero E6 [15] = test: as above

Row | Structure (SMILES) | cell viability (Caco-2 [1]; 1 nM) [%] | cell viability (Caco-2 [1]; 10 nM) [%] | cell viability (Caco-2 [1]; 100 nM) [%] | cell viability (Caco-2 [1]; 1000 nM) [%] | cell viability (Caco-2 [1]; 10000 nM) [%] | cell viability (Calu-3 [2]; 1 nM) [%] | cell viability (Calu-3 [2]; 10 nM) [%] | cell viability (Calu-3 [2]; 100 nM) [%] | cell viability (Calu-3 [2]; 1000 nM) [%] | cell viability (Calu-3 [2]; 10000 nM) [%] | cell viability (U2OS [3]; 1 nM) [%] | cell viability (U2OS [3]; 10 nM) [%] | cell viability (U2OS [3]; 100 nM) [%] | cell viability (U2OS [3]; 1000 nM) [%] | cell viability (U2OS [3]; 10000 nM) [%] | cell viability (HepG2 [4]; 1 nM) [%] | cell viability (HepG2 [4]; 10 nM) [%] | cell viability (HepG2 [4]; 100 nM) [%] | cell viability (HepG2 [4]; 1000 nM) [%] | cell viability (HepG2 [4]; 10000 nM) [%] | cell viability (Vero E6 [5]; 1 nM) [%] | cell viability (Vero E6 [5]; 10 nM) [%] | cell viability (Vero E6 [5]; 100 nM) [%] | cell viability (Vero E6 [5]; 1000 nM) [%] | cell viability (Vero E6 [5]; 10000 nM) [%] | drug sensitivity score (Caco-2 [6]) | drug sensitivity score (Calu-3 [7]) | drug sensitivity score (U2OS [8]) | drug sensitivity score (HepG2 [9]) | drug sensitivity score (Vero E6 [10]) | relative viability EC50 (Caco-2 [11]) [µM] | relative viability EC50 (Calu-3 [12]) [µM] | relative viability EC50 (U2OS [13]) [µM] | relative viability EC50 (HepG2 [14]) [µM] | relative viability EC50 (Vero E6 [15]) [µM]
1 | CCCCCCCCCCCCC[N+](C)(C)Cc1ccccc1 [benzalkonium] | 102 | 102 | 110 | 108 | 19.5 | 104 | 98.9 | 97 | 98.8 | 37.3 | 97.7 | 91.8 | 102 | 92.9 | 13.7 | 96.1 | 108 | 102 | 116 | 22.9 | 89 | 101 | 96.1 | 105 | 92.4 | 3.9 | 3.6 | 5.9 | 3.4 | 0 | 3.62 | 3.02 | 2.49 | 3.95 | > 10
2 | Nc1c(S(=O)(=O)O)cc(Nc2cccc3ccccc23)c2c1C(=O)c1ccccc1C2=O | 91.3 | 97.8 | 101 | 89.7 | 90.1 | 101 | 95.8 | 91.5 | 101 | 93.2 | 94.1 | 98.4 | 95.3 | 95.4 | 81.8 | 103 | 91.1 | 91.1 | 90 | 86.8 | 94.2 | 98.3 | 97.3 | 93.7 | 86.7 | 0.1 | 0 | 0.8 | 1 | 0 | > 10 | > 10 | > 10 | > 10 | > 10
3 | CC(C)c1c(NC(=O)Nc2ccc(Cl)cc2)c(=O)n(-c2ccccc2)n1C [TC-FPR-43] | 98.8 | 105 | 102 | 98.6 | 99.2 | 106 | 102 | 100 | 105 | 96.5 | 97.1 | 103 | 99.3 | 107 | 93.2 | 90.9 | 105 | 101 | 94.3 | 94.5 | 96.7 | 96.8 | 94.2 | 96.9 | 92.4 | 0 | 0 | 0 | 0 | 0 | > 10 | > 10 | > 10 | > 10 | > 10
4 | CC(C)NCC(O)c1ccc(N)c(C#N)c1 (stereo not given) [cimaterol] | 96 | 93.2 | 94.2 | 89.8 | 102 | 102 | 93.2 | 101 | 99.2 | 96.6 | 100 | 99.4 | 106 | 97 | 105 | 110 | 91.6 | 96.6 | 91.7 | 94.1 | 105 | 104 | 96.6 | 103 | 99.2 | 0 | 0 | 0 | 0 | 0 | > 10 | > 10 | > 10 | > 10 | > 10
5 | NC(=O)CN1CC[C@@H](NC(=O)[C@@H]2CCCN2)C1=O [PAOPA] | 100 | 99.7 | 100 | 134 | 96.7 | 98.1 | 99.6 | 106 | 94.2 | 106 | 100 | 102 | 102 | 105 | 95.2 | 89.1 | 109 | 97 | 100 | 108 | 95.4 | 97.8 | 92.5 | 101 | 104 | 0 | 0 | 0 | 0 | 0 | > 10 | > 10 | > 10 | > 10 | > 10
6 | CC1(C)Oc2ccc(C#N)cc2[C@@H](N2CCCC2=O)[C@@H]1O [levcromakalim] | 96.5 | 99.7 | 99.1 | 88.5 | 99.6 | 85.7 | 105 | 91.8 | 104 | 102 | 103 | 102 | 99.4 | 98 | 101 | 109 | 105 | 98 | 101 | 96.2 | 92.1 | 96.6 | 97.1 | 97.2 | 93.7 | 0 | 0 | 0 | 0 | 0 | > 10 | > 10 | > 10 | > 10 | > 10
7 | Nc1ncc2c(n1)CC(c1ccco1)CC2=O (stereo not given) [NKY-80] | 97 | 98.3 | 102 | 86.4 | 97.6 | 106 | 96.1 | 110 | 101 | 94.8 | 96.4 | 97.3 | 99.7 | 97.6 | 100 | 103 | 105 | 109 | 105 | 91 | 101 | 104 | 100 | 97.7 | 101 | 0 | 0 | 0 | 0 | 0 | > 10 | > 10 | > 10 | > 10 | > 10
8 | CNCCCC1(c2ccccc2)OC(C)(C)c2ccccc21 (stereo not given) [talopram] | 91.4 | 104 | 103 | 101 | 99.2 | 99.4 | 102 | 102 | 96.3 | 103 | 101 | 98.7 | 100 | 99.4 | 99 | 101 | 102 | 89.8 | 110 | 106 | 93.7 | 96.8 | 90.1 | 99 | 104 | 0 | 0 | 0 | 0 | 0 | > 10 | > 10 | > 10 | > 10 | > 10
9 | O=C(O)[C@H](CC(=O)N1C[C@H]2CCCC[C@H]2C1)Cc1ccccc1 [mitiglinide] | 99.9 | 96.4 | 95 | 101 | 94.9 | 86.3 | 93 | 88.2 | 92.8 | 104 | 92.2 | 104 | 95.3 | 116 | 96.4 | 98.2 | 84.2 | 91.5 | 94.6 | 104 | 98.4 | 104 | 101 | 98.5 | 103 | 0 | 0 | 0 | 0 | 0 | > 10 | > 10 | > 10 | > 10 | > 10
10 | COc1cc2c(c(OC)c1OC)-c1c(cc3c(c1OC)OCO3)C[C@H](C)[C@@](C)(O)C2 [schisandrol-B] | 104 | 92 | 95.9 | 95.9 | 97.4 | 100 | 92.8 | 101 | 105 | 96.5 | 101 | 99.9 | 105 | 103 | 97.9 | 100 | 114 | 93.3 | 98.4 | 100 | 102 | 102 | 102 | 100 | 97.8 | 0 | 0 | 0 | 0 | 0 | > 10 | > 10 | > 10 | > 10 | > 10
11 | COc1ncc2cc(C(=O)Nc3cc(C(=O)NCc4cccc(Cl)c4)ccc3Cl)c(=O)[nH]c2n1 [TC-S-7004] | 111 | 107 | 99.6 | 98.6 | 95 | 94.8 | 94.8 | 105 | 104 | 104 | 98.8 | 102 | 103 | 103 | 99.1 | 98.6 | 97.4 | 100 | 87.7 | 101 | 104 | 101 | 102 | 100 | 95 | 0 | 0 | 0 | 0 | 0 | > 10 | > 10 | > 10 | > 10 | > 10
12 | N#Cc1ccccc1-c1cc(-c2ccccn2)cn(-c2ccccc2)c1=O [Perampanel] | 90.5 | 106 | 97.5 | 93.6 | 104 | 90.5 | 97.5 | 96.5 | 103 | 95.6 | 94 | 94 | 99.6 | 96.2 | 99.7 | 98.7 | 108 | 104 | 105 | 119 | 92.1 | 101 | 95.4 | 96.9 | 92.4 | 0 | 0 | 0 | 0 | 0 | > 10 | > 10 | > 10 | > 10 | > 10
13 | CC[C@@H](c1ccc(F)c(F)c1)n1c(C(=O)OC)c(-c2ccno2)[nH]c1=S | 97.9 | 98.3 | 98.4 | 96.9 | 94.2 | 96.1 | 95.1 | 98.6 | 91.3 | 99.8 | 99.7 | 94 | 98.9 | 96 | 95.7 | 115 | 98.8 | 93.3 | 99.7 | 90.4 | 103 | 95.4 | 97.8 | 99.9 | 96.7 | 0 | 0 | 0 | 0 | 0 | > 10 | > 10 | > 10 | > 10 | > 10
14 | NC(=O)NO [hydroxyurea] | 96.5 | 87 | 103 | 77.9 | 94.1 | 104 | 89.4 | 99 | 103 | 95.2 | 97.1 | 98.2 | 102 | 96 | 99.8 | 106 | 81.9 | 125 | 115 | 103 | 95.6 | 101 | 101 | 97.1 | 112 | 0.1 | 0 | 0 | 0 | 0 | > 10 | > 10 | > 10 | > 10 | > 10
